According to patent US20260053931A1, “MDM2 TARGETING PROTACS” (THE WISTAR INSTITUTE OF ANATOMY AND BIOLOGY, priority 2023, published 2026):

Columns and labels:
MDM2-p53 = MDM2-p53 (Homo sapiens, UniProt Q00987); experiment: Inhibition of MDM2 binding to p53 using HTRF (Table 3); conditions: mean ± S.E.M. of three replications
[1] = system: p53-null mouse sarcoma cells; experiment: Murine Mdm2+/+ p53-null sarcoma cells, Western blot and MTT; format: cell-based; conditions: increasing concentrations, MTT assay, 48 hrs
VHL complex = target: T1, VHL complex (Homo sapiens, UniProt P40337); experiment: Inhibition of HIF-1α peptide binding to the VHL complex using HTRF (Table 3); conditions: mean ± S.E.M. of three replications; read-out: VHL-HIFa peptide IC50
T1 construct: purchased R&D systems E3-655-025
T1 sequence (P40337 whole entry): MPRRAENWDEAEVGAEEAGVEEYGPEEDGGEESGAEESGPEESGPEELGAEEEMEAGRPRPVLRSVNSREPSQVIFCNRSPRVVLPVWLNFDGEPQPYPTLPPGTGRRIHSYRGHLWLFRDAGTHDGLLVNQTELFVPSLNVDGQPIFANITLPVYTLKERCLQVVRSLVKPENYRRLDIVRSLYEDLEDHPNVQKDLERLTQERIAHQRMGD
T1 sequence (Q15370 whole entry partner): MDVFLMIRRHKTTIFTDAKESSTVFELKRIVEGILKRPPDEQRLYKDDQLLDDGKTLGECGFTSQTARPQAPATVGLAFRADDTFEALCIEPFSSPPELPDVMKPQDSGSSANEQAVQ
T1 sequence (Q15369 whole entry partner): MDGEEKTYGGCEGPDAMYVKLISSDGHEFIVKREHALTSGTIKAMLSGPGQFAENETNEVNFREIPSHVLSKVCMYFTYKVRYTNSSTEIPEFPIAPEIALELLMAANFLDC
T1 sequence (Q13617 whole entry partner): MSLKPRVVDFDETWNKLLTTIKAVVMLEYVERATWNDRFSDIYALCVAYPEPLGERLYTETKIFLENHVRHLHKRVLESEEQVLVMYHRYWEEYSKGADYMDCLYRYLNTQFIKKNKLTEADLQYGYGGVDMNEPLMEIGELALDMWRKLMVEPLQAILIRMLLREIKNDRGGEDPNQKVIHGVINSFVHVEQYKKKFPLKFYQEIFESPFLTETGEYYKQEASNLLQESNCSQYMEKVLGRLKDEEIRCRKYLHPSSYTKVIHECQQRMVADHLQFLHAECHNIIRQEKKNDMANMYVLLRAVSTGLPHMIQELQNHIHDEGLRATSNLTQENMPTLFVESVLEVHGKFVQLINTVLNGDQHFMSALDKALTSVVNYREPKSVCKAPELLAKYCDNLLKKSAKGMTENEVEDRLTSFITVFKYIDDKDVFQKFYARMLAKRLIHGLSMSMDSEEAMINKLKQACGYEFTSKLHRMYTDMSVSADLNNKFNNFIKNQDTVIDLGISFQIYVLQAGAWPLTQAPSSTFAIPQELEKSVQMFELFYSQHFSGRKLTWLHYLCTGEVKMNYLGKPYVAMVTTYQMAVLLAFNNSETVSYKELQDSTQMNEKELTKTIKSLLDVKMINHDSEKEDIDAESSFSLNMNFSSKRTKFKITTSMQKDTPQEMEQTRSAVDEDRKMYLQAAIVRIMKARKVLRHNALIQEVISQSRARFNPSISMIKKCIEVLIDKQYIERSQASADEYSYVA
T1 sequence (P62877 whole entry partner): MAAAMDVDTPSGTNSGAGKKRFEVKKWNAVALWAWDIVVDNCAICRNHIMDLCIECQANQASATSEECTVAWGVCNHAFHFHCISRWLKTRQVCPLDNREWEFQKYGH
Protocol: Assays contained 2 nM of HIS-VHL complex (R&D systems, E3-655-025), 2 nM of biotin-hydroxyproline-HIF1α peptide (Biotin-[…] (SEQ ID NO: 2), X=hydroxyproline), 0.3 nM anti-HIS-Tb HTRF donor antibody and 4 nM streptavidin-d2 HTRF acceptor (PerkinElmer) in a final volume of 10 μL of 25 mM HEPES, pH 7.4, 150 mM NaCl, 5 mM DTT, 0.005% Tween20 in white low volume 384-well plates. Both HIS-VHL complex and biotin-HIF1α peptide were pre-incubated with their respective HTRF antibodies for 15 min. Test compounds were solubilized at 10 mM in DMSO and concentration series was added to the assay plate using the Echo 650 acoustic liquid handling system by direct dilution. The final amount of DMSO added to the assay was 100 nL […]. Compounds were pre-incubated with HIS-VHL complex before the addition of the biotin-HIF1α peptide. After a 2 hr incubation, the HTRF signal was measured using the ClarioStar plate reader (BMG Labtech). […] IC50 values were determined from nonlinear regression fits of a data to a four parameter dose-response equation using XLFit (IDBS). Data are the means±S.E.M. of three replications. The data is described in Table 3 above.

TAp73 = experiment: Western blotting for TAp73 in TNBC cell lines; format: cell-based, human; conditions: five TNBC cell lines
Protocol: FIGS. 28A-28L show TAp73 is activated by the MDM2-PROTAC YX-02-030 and mediates apoptosis of p53-inactivated TNBC cells. A-C, RNA-seq (triplicates) was performed on MDA-MB-231 cells treated with the MDM2-PROTAC YX-02-030 (6 μM, 16 hr) or DMSO vehicle control or expressing MDM2 shRNA or non-targeting control shRNA (48 hr). A, Pathway analysis using Hallmark gene signatures. B, Heatmap of p53 family target genes of individual samples (3 each). C, Spearman's correlation of differentially expressed p53 family target genes between PROTAC-treated relative to DMSO vehicle control and MDM2 shRNA relative to non-targeting shRNA control; Spearman's correlation coefficient (p) and P-value indicated. D, qRT-PCR analysis (triplicate, 6 μM, 16 hr) to validate RNA-seq results. […] I, ChIP for TAp73 was performed with MDA-MB-231 cells following treatment with the MDM2-PROTAC YX-02-030 (6 μM, 16 hr) or DMSO vehicle control, and enrichment of TAp73 (triplicate; first normalized to input DNA then IgG control) was determined at the loci indicated. J and K, After 48 hr, MDA-MB-231 cells expressing two independent TAp73 shRNA or non-targeting shRNA (shNT) control were treated with MDM2-PROTAC YX-02-030 or DMSO vehicle control (6 μM, 16 hr). p53/TAp73 target genes were evaluated by Western blotting (J) and qRT-PCR (K, triplicate). […]

Sequence of MDM2-p53 (Q00987 whole entry): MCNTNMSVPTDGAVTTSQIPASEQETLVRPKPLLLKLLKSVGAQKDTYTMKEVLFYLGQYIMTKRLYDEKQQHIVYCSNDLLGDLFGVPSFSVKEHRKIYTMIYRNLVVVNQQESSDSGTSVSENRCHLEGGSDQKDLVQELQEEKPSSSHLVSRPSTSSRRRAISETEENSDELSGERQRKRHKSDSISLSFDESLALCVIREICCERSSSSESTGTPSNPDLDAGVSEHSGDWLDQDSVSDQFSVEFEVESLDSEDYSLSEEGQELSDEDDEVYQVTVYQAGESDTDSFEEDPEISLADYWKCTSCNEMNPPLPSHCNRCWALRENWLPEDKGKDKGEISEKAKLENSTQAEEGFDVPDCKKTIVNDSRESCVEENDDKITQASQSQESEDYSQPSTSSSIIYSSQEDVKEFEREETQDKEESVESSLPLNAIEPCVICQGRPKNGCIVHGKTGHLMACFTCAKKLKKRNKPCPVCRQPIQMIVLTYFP

| IC50 (MDM2-p53) [nM] | IC50 (VHL complex) [nM] | SMILES | killing of p53-null sarcoma cells [1] | TAp73 protein level (TAp73) |
| --- | --- | --- | --- | --- |
| 11 ± 1.3 | > 10000 | CCOc1cc(C(C)(C)C)ccc1C1=N[C@@](C)(c2ccc(Cl)cc2)[C@@](C)(c2ccc(Cl)cc2)N1C(=O)N1CCN(CC(=O)O)CC1 (racemic) [YX-02-023, 2-(4-((4S,5R)-2-(4-(tert-butyl)-2-ethoxyphenyl)-4,5-bis(4-chlorophenyl)-4,5-dimethyl-4,5-dihydro-1H-imidazole-1-carbonyl)piperazin-1-yl)acetic acid] | not |  |
|  |  | CCOc1cc(C(C)(C)C)ccc1C1=NC(C)(c2ccc(Cl)cc2)C(C)(c2ccc(Cl)cc2)N1C(=O)N1CCN(CC(=O)NCCOCCOCCOCC(=O)N[C@H](C(=O)N2C[C@H](O)C[C@H]2C(=O)NCc2ccc(-c3scnc3C)cc2)C(C)(C)C)CC1 (stereo in doubt) [YX-02-030, (2S,4R)-1-((S)-2-(tert-butyl)-17-(4-((4S,5R)-2-(4-(tert-butyl)-2-ethoxyphenyl)-4,5-bis(4-chlorophenyl)-4,5-dimethyl-4,5-dihydro-1H-imidazole-1-carbonyl)piperazin-1-yl)-4,16-dioxo-6,9,12-trioxa-3,15-diazaheptadecanoyl)-4-hydroxy-N-(4-(4-methylthiazol-5-yl)benzyl)pyrrolidine-2-carboxamide] |  | levels of TAp73 protein increased |
